From US9949979B2, “Use of inhibitors of the activity or function of PI3K” (NOVARTIS AG, priority 2011, dated 2018)

Test system: isolated human pDCs
Assay: P. falciparum nuclear extract-induced IFNα production in human pDCs
Type: cell-based
Conditions: for IFNα level: nuclear extract
Method: Human PBMCs were prepared using Buffy Coats as source material from healthy donations (approx. 50 ml obtained from Blutspendezentrum SRK Basel) and processed as indicated above. Fresh PBMCs were resuspended and diluted in RoboSep™ buffer (PBS containing 2% v/v FBS, 1 mM EDTA (Gibco #15575-038) to obtain a final concentration of 50×10^6 PBMCs/ml. Human pDCs (negative selection) were isolated using plasmacytoid DC Enrichment kit (Stemcell, #19062) using an automation RobSep™ station as described according to manufacturer protocols. Typical pDC yields were approx. 0.1% of total PBMCs and with a purity>90%. Isolated pDCs were diluted to 4×10^5 cells/ml and seeded in 384-well plates (#353962; Becton Dickinson AG) to give a final volume of 25 μl (i.e. 1×10^4 cells/well). For stimulation using malaria nuclear extact (see below), pDCs were seeded at a final concentration of 5×10^4 cells/well.
The preparation of the nuclear extract of plasmodium falciparum was performed according to Gowda et al [Gowda et al. “The Nucleosome (Histone-DNA Complex) Is the TLR9-Specific Immunostimulatory Component of Plasmodium falciparum That Activates DCs”, PLoS ONE 2011]. In brief, Plasmodium falciparum 3D7 parasites were cultured in human red blood cell at 2% hematocrit. When the parasite was at late trophozoite and schizont stages, the infected red blood cells (IRBCs) were harvested by centrifugation and the pellets were re-suspended in 20 volumes of 0.1% saponin (m/v) in PBS, pH 7.2. The re-suspension was incubated on ice for 10 minutes and centrifuged at 2,500 g at 4° C. for 15 min. The pellet was re-suspended in the above solution, incubated on ice for 10 min and centrifuged at 2,500 g at 4° C. for 15 min. The parasite pellet thus obtained was washed 3 times with cold PBS, pH 7.2, by centrifugation. Each time 35 ml of cold PBS was used. The pellet obtained after the last centrifugation was suspended in 10 volumes of lysis buffer (20 mM HEPES, pH 7.5, 10 mM KCl, 1 mM EDTA, 1 mM dithiothreitol, 1 mM phenylmethylsulfonyl fluoride (PMSF) and 1% Triton X-100) and incubated on ice for 5 min. The suspension was centrifuged at 5,000 g at 4° C. for 10 min, and nuclear material was washed three times with the lysis buffer to remove membrane components. The nuclear material was re-suspended in PBS, pH 7.2. Insoluble material was subsequently solubilized by using a water-bath sonicator.
Compounds were pre-diluted in 100% v/v DMSO (#41640-100 mL; Sigma-Aldrich), followed by transfer in Media (to achieve a final DMSO concentration of 0.25%). Cells were treated with appropriate compound dilution (5 μl) or vehicle control (5 μl) and incubated for 30 min at 37° C. in a humidified incubator in air with 5% (v/v) CO2. Cells were stimulated with CpG2216 (0.3 μM; #tlrl-hodna; Invivogen), malaria nuclear extract (2.5 μg/ml; see above for preparation) or vehicle control (10 μl/well) and incubated for 20 h. Plates were briefly centrifuged (200×g for 2 min at 22° C.) and supernatant samples (30 μl) removed for quantification of IFNα levels.
For quantification of IFNalpha the human interferon AlphaLISA Kit (#AL264F) from PerkinElmer was used. An antibody mix containing anti-IFNα acceptor beads (5 μg/ml final) and biotinylated antibody anti-IFNα(0.5 nM final) is prepared fresh and dispensed (5 μl) into 384-well Optiplates™ (#6007299; PerkinElmer). Dilution of known IFNα standards (human IFNα B (2b)) were prepared and together with cell supernatants (5 μl) were added to plates above. Plates were briefly centrifuged (pulse at 200 g), covered with adhesive sealing film, vortexed and incubated 1 h at room temperature in the dark. Streptavidin-coated donor beads (20 μg/ml final) was prepared and added to each well (5 μl) in a dark lit area (light sensitive mix). Plates were incubated 30 min at room temperature (Plates must not be centrifuged or covered). […]

**Q.** `CCC(=O)N1CC[C@H](Nc2ncnc3c2CN(c2cnc(OC)c(C(F)(F)F)c2)CC3)C1` [Example 67, 1-{(S)-3-[6-(6-Methoxy-5-trifluoromethyl-pyridin-3-yl)-5,6,7,8-tetrahydro-pyrido[4,3-d]pyrimidin-4-ylamino]-pyrrolidin-1-yl}-propan-1-one] was tested. Which inhibition at 0.01 µM (compound 0.01 μM, read-out: % inh. of IFNα by nuclear extract) did it give?
**A.** 25%

**Q.** And the inhibition at 0.1 µM (compound 0.1 μM, read-out: % inh. of IFNα by nuclear extract)?
**A.** 64%

**Q.** What about the inhibition at 1 µM (compound 1 μM, read-out: % inh. of IFNα by nuclear extract) of the same compound?
**A.** 77%

**Q.** And the “IFNα level” value (compound 0.01 μM)?
**A.** 4084 pg/mL

**Q.** And the “IFNα level” value (compound 0.1 μM)?
**A.** 2110 pg/mL

**Q.** And the “IFNα level” value (compound 1 μM)?
**A.** 1483 pg/mL
